# Test results taken from patent US20070128217A1 (priority 2003, published 2007).
# Assays:
# [1] = tested on: control sera (pooled serum of ten healthy LUMC hospital workers; commercial negative donor pooled serum from the Dutch bloodbank); format: binding, human; set-up: Binding of Control serum LUMC to linear peptides / Binding of Control serum Blood-bank to linear peptides / Binding of Control serum LUMC to looped peptides / Binding of Control Serum Blood-Bank to Looped peptides / Binding of Control serum LUMC to linear peptides of the protein M of SARS-CoV Urbani / Binding of Control serum Blood-bank to linear peptides of the protein M of SARS-CoV Urbani / Binding of Control serum LUMC to looped peptides of the protein M of SARS-CoV Urbani / Binding of Control Serum Blood-Bank to Looped peptides of the protein M of SARS-CoV Urbani: unit not given here
# [2] = tested on: rabbit serum obtained by immunizing a rabbit with the SARS-CoV strain Frankfurt 1; format: binding; set-up: Binding of a rabbit serum to linear peptides / Binding of a rabbit serum to looped peptides / Rabbit serum linear peptides / Rabbit serum looped peptides / Binding of a rabbit serum to linear peptides of protein N of SARS-CoV Urbani (Rabbit serum linear peptides) / Binding of a rabbit serum to looped/cyclic peptides of protein N of SARS-CoV Urbani (Rabbit serum looped peptides): unit not given here
# [3] = tested on: antibodies in sera from SARS patients (sera 1a, 1b, 2, 6, 37, 62, London, SARS-yellow, SARS-green); format: binding, human; set-up: Binding of serum 6 to linear peptides of protein X1 of SARS-CoV Urbani / Binding of serum 37 to linear peptides of protein X1 of SARS-CoV Urbani / Binding of serum 6 to looped/cyclic peptide (PEPSCAN-ELISA) / Binding of serum 37 to looped/cyclic peptide (PEPSCAN-ELISA) / Binding of serum 37 to looped/cyclic peptides of protein X1 of SARS-CoV Urbani / Binding of serum 6 to linear peptides of protein X2 / Binding of serum 37 to linear peptides of protein X2 / Binding of serum 37 to looped/cyclic peptides of protein X2 of SARS-CoV Urbani / Binding of serum 6 to linear peptides of protein M of SARS-CoV Urbani / Binding of serum 37 to linear peptides of protein M of SARS-CoV Urbani / Binding of serum 6 to looped/cyclic peptides of protein M of SARS-CoV Urbani / Binding of serum 37 to looped/cyclic peptides of protein M of SARS-CoV Urbani / Binding of serum 6 to linear peptides of protein X3 of SARS-CoV Urbani / Binding of serum 37 to linear peptides of protein X3 of SARS-CoV Urbani / Binding of serum 37 to looped/cyclic peptides of protein X3 of SARS-CoV Urbani / Binding of serum 6 to linear peptides of protein X4 of SARS-CoV Urbani / Binding of serum 37 to linear peptides of protein X4 of SARS-CoV Urbani / Binding of serum 37 to looped/cyclic peptides of protein X4 of SARS-CoV Urbani / Binding of serum 6 to linear peptides of protein X5 of SARS-CoV Urbani / Binding of serum 37 to linear peptides of protein X5 of SARS-CoV Urbani / Binding of serum 37 to looped/cyclic peptides of protein X5 of SARS-CoV Urbani / Binding of serum 6 to linear peptides of protein N of SARS-CoV Urbani / Binding of serum 37 to linear peptides of protein N of SARS-CoV Urbani / Binding of serum 6 to linear peptide (PEPSCAN-ELISA) / Binding of serum 1a to looped/cyclic peptides of protein N of SARS-CoV Urbani / Binding of serum 1b to looped/cyclic peptides of protein N of SARS-CoV Urbani / Binding of serum 2 to looped/cyclic peptides of protein N of SARS-CoV Urbani / Binding of serum 6 to looped/cyclic peptides of protein N of SARS-CoV Urbani / Binding of serum 37 to looped/cyclic peptides of protein N of SARS-CoV Urbani / Binding of serum 62 to looped/cyclic peptides of protein N of SARS-CoV Urbani / Binding of serum London to looped/cyclic peptides of protein N of SARS-CoV Urbani / Binding of serum SARS-green to looped/cyclic peptides of protein N of SARS-CoV Urbani: unit not given here
# [4] = tested on: recombinant human anti-SARS-CoV antibody 03-018; format: binding; set-up: Binding of antibody 03-018 to linear peptides of the N protein of SARS-CoV Urbani / Binding of antibody 03-018 to looped/cyclic peptides of the N protein of SARS-CoV Urbani: unit not given here
Sequence,Binding of Control Serum Blood-Bank to Looped peptides [1],Binding of Control serum Blood-bank to linear peptides [1],Binding of Control serum LUMC to linear peptides [1],Binding of Control serum LUMC to looped peptides [1],Binding of a rabbit serum to linear peptides of protein N of SARS-CoV Urbani (Rabbit serum linear peptides) [2],Binding of a rabbit serum to looped/cyclic peptides of protein N of SARS-CoV Urbani (Rabbit serum looped peptides) [2],Binding of serum 1a to linear peptides of protein N of SARS-CoV Urbani [3],Binding of serum 1a to looped/cyclic peptides of protein N of SARS-CoV Urbani [3],Binding of serum 1b to linear peptides of protein N of SARS-CoV Urbani [3],Binding of serum 1b to looped/cyclic peptides of protein N of SARS-CoV Urbani [3],Binding of serum 2 to linear peptides of protein N of SARS-CoV Urbani [3],Binding of serum 2 to looped/cyclic peptides of protein N of SARS-CoV Urbani [3],Binding of serum 6 to looped/cyclic peptides of protein N of SARS-CoV Urbani [3],Binding of serum 37 to looped/cyclic peptides of protein N of SARS-CoV Urbani [3],Binding of serum 62 to looped/cyclic peptides of protein N of SARS-CoV Urbani [3],Binding of serum London to looped/cyclic peptides of protein N of SARS-CoV Urbani [3],Binding of serum SARS-green to looped/cyclic peptides of protein N of SARS-CoV Urbani [3],Binding of serum SARS-yellow to looped/cyclic peptides of protein N of SARS-CoV Urbani [3],Binding of antibody 03-018 to linear peptides of the N protein of SARS-CoV Urbani [4],Binding of antibody 03-018 to looped/cyclic peptides of the N protein of SARS-CoV Urbani [4],other results
KEELRFPRGQGVPIN,0.7,0.8,0.7,0.7,0.1,0.6,0.2,0.4,0.1,0.3,0.3,0.5,0.4,0.7,0.5,0.7,0.4,0.6,0.1,0.3,Binding of serum 6 to linear peptides of protein N of SARS-CoV Urbani [3]: 0.2; Binding of serum 37 to linear peptides of protein N of SARS-CoV Urbani [3]: 0.7; Binding of serum 62 to linear peptides of protein N of SARS-CoV Urbani [3]: 0.6; Binding of serum London to linear peptides of protein N of SARS-CoV Urbani [3]: 0.5; Binding of serum SARS-green to linear peptides of protein N of SARS-CoV Urbani [3]: 0.5; Binding of serum SARS-yellow to linear peptides of protein N of SARS-CoV Urbani [3]: 0.5
KELSPRWYFYYLGTG,0.7,0.4,0.4,0.6,0.0,0.4,0.2,0.4,0.1,0.2,0.1,0.4,0.3,0.7,0.5,0.4,0.4,0.3,0.1,0.3,Binding of serum 6 to linear peptides of protein N of SARS-CoV Urbani [3]: 0.1; Binding of serum 37 to linear peptides of protein N of SARS-CoV Urbani [3]: 0.4; Binding of serum 62 to linear peptides of protein N of SARS-CoV Urbani [3]: 0.4; Binding of serum London to linear peptides of protein N of SARS-CoV Urbani [3]: 0.4; Binding of serum SARS-green to linear peptides of protein N of SARS-CoV Urbani [3]: 0.1; Binding of serum SARS-yellow to linear peptides of protein N of SARS-CoV Urbani [3]: 0.5
KGFYAEGSRGGSQAS,0.5,0.7,0.5,0.4,0.1,0.1,,0.3,,0.2,,0.3,0.2,0.4,0.3,0.3,0.1,0.1,0.1,0.2,Binding of serum 1a to linear peptide (PEPSCAN-ELISA) [3]: 0.2; Binding of serum 1b to linear peptide (PEPSCAN-ELISA) [3]: 0.1; Binding of serum 2 to linear peptide (PEPSCAN-ELISA) [3]: 0.2; Binding of serum 6 to linear peptide (PEPSCAN-ELISA) [3]: 0.2; Binding of serum 37 to linear peptide (PEPSCAN-ELISA) [3]: 0.6; Binding of serum 62 to linear peptide (PEPSCAN-ELISA) [3]: 0.5; Binding of serum London to linear peptide (PEPSCAN-ELISA) [3]: 0.4; Binding of serum SARS-green to linear peptide (PEPSCAN-ELISA) [3]: 0.2; Binding of serum SARS-yellow to linear peptide (PEPSCAN-ELISA) [3]: 0.5
KHIDAYKTFPPTEPK,,,,,0.1,0.2,0.3,0.2,0.1,0.1,0.3,0.2,0.1,0.4,0.3,0.3,0.1,0.1,0.1,0.2,Control Serum Blood-Bank Looped peptides [1]: 0.3; Control serum Blood-bank linear peptides [1]: 0.8; Control serum LUMC linear peptides [1]: 0.7; Control serum LUMC looped peptides [1]: 0.3; Binding of serum 6 to linear peptides of protein N of SARS-CoV Urbani [3]: 0.2; Binding of serum 37 to linear peptides of protein N of SARS-CoV Urbani [3]: 0.7; Binding of serum 62 to linear peptides of protein N of SARS-CoV Urbani [3]: 0.8; Binding of serum London to linear peptides of protein N of SARS-CoV Urbani [3]: 0.5; Binding of serum SARS-green to linear peptides of protein N of SARS-CoV Urbani [3]: 0.5; Binding of serum SARS-yellow to linear peptides of protein N of SARS-CoV Urbani [3]: 0.8
